Experimental data: patent US20240109900A1, “AZABICYCLIC SHP2 INHIBITORS” (IRBM S.P.A., priority 2021, published 2024)
Like-named read-outs stand apart in the source and are kept apart here.

Experiments:
[1] = test system: ERK phosphorylation in KYSE-520 cells; assay: Phospho-ERK cellular assay; assay type: cell-based; conditions: KYSE-520 cells, 2 h at 37° C., phospho-ERK1/2 (Thr202/Tyr204) TR-FRET, read-out: PERK IC50
Method in brief: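 TR-FRET read-out of ERK1/2 Thr202/Tyr204 phosphorylation was taken after overnight antibody incubation at room temperature. Before that, KYSE-520 cells were treated 2 h at 37 °C with compound dilutions and lysed 30 min. Percent inhibition relative to vehicle and cell-free wells was fitted four-parametrically to give IC50.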

[2] = target: SHP-2 enzyme (Met1-Leu525) (Homo sapiens (Human), UniProt Q06124); assay: SHP2 inhibition enzymatic assay; assay type: biochemical; conditions: 0.5 nM SHP-2 activated by 500 nM IRS1 peptide, 75 μM DiFMUP substrate; read-out: SHP2wt-IC50
Chain of SHP-2 enzyme (Met1-Leu525) (Q06124 1-525): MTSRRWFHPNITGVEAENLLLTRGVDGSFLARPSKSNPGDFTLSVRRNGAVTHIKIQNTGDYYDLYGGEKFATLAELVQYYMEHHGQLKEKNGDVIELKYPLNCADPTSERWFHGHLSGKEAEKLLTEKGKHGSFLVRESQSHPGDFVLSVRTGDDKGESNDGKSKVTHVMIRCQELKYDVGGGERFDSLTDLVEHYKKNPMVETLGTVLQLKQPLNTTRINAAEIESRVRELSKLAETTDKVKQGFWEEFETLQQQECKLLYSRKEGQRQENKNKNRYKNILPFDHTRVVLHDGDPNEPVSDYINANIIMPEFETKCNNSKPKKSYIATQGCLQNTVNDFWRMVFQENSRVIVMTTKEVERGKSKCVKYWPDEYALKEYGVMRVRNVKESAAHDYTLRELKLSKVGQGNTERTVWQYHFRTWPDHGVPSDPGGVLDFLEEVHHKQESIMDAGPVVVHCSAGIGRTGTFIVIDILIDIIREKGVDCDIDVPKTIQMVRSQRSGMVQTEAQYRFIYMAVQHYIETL
Method in brief: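 SHP-2 (Met1-Leu525), 0.5 nM, activated with 500 nM IRS1 bis-phosphopeptide, preincubated 30 min with compounds in HEPES pH 7.2 buffer with 5 mM DTT. 75 μM DiFMUP added for 30 min at room temperature, stopped with bpV; fluorescence read. IC50 from four-parameter logistic fit of % inhibition.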

`Cc1cc([C@@]2(CN)[C@@H]3CCN(c4cnc5c(-c6ccc7nn(C)c(Cl)c7c6Cl)n[nH]c5n4)C[C@@H]32)no1` [Example 44, ((1S,6R,7S)-3-(3-(3,4-dichloro-2-methyl-2H-indazol-5-yl)-1H-pyrazolo[3,4-b]pyrazin-6-yl)-7-(5-methylisoxazol-3-yl)-3-azabicyclo[4.1.0]heptan-7-yl)methanamine] was tested, and the IC50 ([1]; Homo sapiens, KYSE-520, 2 h) was less than 1000 nM and the IC50 [2] was less than 500 nM.

`Cn1ccc(C2(CN)C3CCN(c4cnc5c(-c6cccc(Cl)c6Cl)n[nH]c5n4)CC32)n1` (stereo not drawn) [Example 98, (3-(3-(2,3-dichlorophenyl)-1H-pyrazolo[3,4-b]pyrazin-6-yl)-7-(1-methyl-1H-pyrazol-3-yl)-3-azabicyclo[4.1.0]heptan-7-yl)methanamine] was tested, and the IC50 ([1]; Homo sapiens, KYSE-520, 2 h) was less than 1000 nM and the IC50 [2] was less than 500 nM.

`Cn1cc2c(Cl)c(-c3n[nH]c4nc(N5C[C@@H]6[C@H](C5)[C@@]6(CN)c5c(F)cccc5F)cnc34)ccc2n1` [Example 221, ((1R,5S,6s)-3-(3-(4-chloro-2-methyl-2H-indazol-5-yl)-1H-pyrazolo[3,4-b]pyrazin-6-yl)-6-(2,6-difluorophenyl)-3-azabicyclo[3.1.0]hexan-6-yl)methanamine] showed an IC50 ([1]; Homo sapiens, KYSE-520, 2 h) of less than 1000 nM and an IC50 [2] of less than 500 nM.

For `Cn1cnc2ccc(-c3n[nH]c4nc(N5CC[C@@H]6[C@H](C5)[C@@]6(CN)c5cc(F)ccc5F)cnc34)c(Cl)c21` [Example 396, ((1S,6R,7R)-3-(3-(7-chloro-1-methyl-1H-benzo[d]imidazol-6-yl)-1H-pyrazolo[3,4-b]pyrazin-6-yl)-7-(2,5-difluorophenyl)-3-azabicyclo[4.1.0]heptan-7-yl)methanamine], the IC50 ([1]; Homo sapiens, KYSE-520, 2 h) was less than 1000 nM and the IC50 [2] was less than 500 nM.

Compound `NC[C@]1(c2ccccc2F)[C@@H]2CCN(c3cnc4c(-c5ccc6c(c5)NC(=O)NC6)n[nH]c4n3)C[C@@H]21` [Example 372, 7-(6-((1S,6R,7R)-7-(aminomethyl)-7-(2-fluorophenyl)-3-azabicyclo[4.1.0]heptan-3-yl)-1H-pyrazolo[3,4-b]pyrazin-3-yl)-3,4-dihydroquinazolin-2(1H)-one] has an IC50 ([1]; Homo sapiens, KYSE-520, 2 h) of less than 1000 nM and an IC50 [2] of less than 500 nM.

`NC[C@]1(c2ccccc2F)[C@@H]2CCN(c3cnc4c(-c5ccnc(-n6cccc6)c5Cl)n[nH]c4n3)C[C@@H]21` [Example 522, ((1S,6R,7R)-3-(3-(3-chloro-2-(1H-pyrrol-1-yl)pyridin-4-yl)-1H-pyrazolo[3,4-b]pyrazin-6-yl)-7-(2-fluorophenyl)-3-azabicyclo[4.1.0]heptan-7-yl)methanamine] showed an IC50 ([1]; Homo sapiens, KYSE-520, 2 h) of less than 1000 nM and an IC50 [2] of less than 500 nM.

For `NC[C@]1(c2ccccc2F)[C@@H]2CCN(c3cnc4c(-c5cc[nH]c(=O)c5Cl)n[nH]c4n3)C[C@@H]21` [Example 268, 4-(6-((1S,6R,7R)-7-(aminomethyl)-7-(2-fluorophenyl)-3-azabicyclo[4.1.0]heptan-3-yl)-1H-pyrazolo[3,4-b]pyrazin-3-yl)-3-chloropyridin-2(1H)-one], the IC50 ([1]; Homo sapiens, KYSE-520, 2 h) was less than 1000 nM and the IC50 [2] was less than 500 nM.

`Cc1cc(C2(CN)C3CCN(c4cnc5c(-c6ccc(Cl)c7ncccc67)n[nH]c5n4)CC32)no1` (stereo not drawn) [Example 33, (3-(3-(8-chloroquinolin-5-yl)-1H-pyrazolo[3,4-b]pyrazin-6-yl)-7-(5-methylisoxazol-3-yl)-3-azabicyclo[4.1.0]heptan-7-yl)methanamine] showed an IC50 ([1]; Homo sapiens, KYSE-520, 2 h) of less than 1000 nM and an IC50 [2] of less than 500 nM.

`Cc1nc2ccc(-c3n[nH]c4nc(N5C[C@@H]6[C@H](C5)[C@@]6(CN)c5ccn(C)n5)cnc34)c(Cl)c2s1` [Example 475, ((1R,5S,6r)-3-(3-(7-chloro-2-methylbenzo[d]thiazol-6-yl)-1H-pyrazolo[3,4-b]pyrazin-6-yl)-6-(1-methyl-1H-pyrazol-3-yl)-3-azabicyclo[3.1.0]hexan-6-yl)methanamine] gave an IC50 ([1]; Homo sapiens, KYSE-520, 2 h) of less than 1000 nM and an IC50 [2] of less than 500 nM.

For `Cc1csc(C2(CN)[C@@H]3CN(c4cnc5c(-c6ccc(C(N)=O)c7ncccc67)n[nH]c5n4)C[C@@H]32)n1` (stereo partly drawn) [Example 504], the IC50 [1] was less than 1000 nM and the IC50 [2] was less than 500 nM.

For `Cc1cc([C@@]2(CN)[C@@H]3CCN(c4cnc5c(-c6ccc7c(c6)OC(F)(F)O7)n[nH]c5n4)C[C@@H]32)no1` [Example 37, ((1S,6R,7S)-3-(3-(2,2-difluorobenzo[d][1,3]dioxol-5-yl)-1H-pyrazolo[3,4-b]pyrazin-6-yl)-7-(5-methylisoxazol-3-yl)-3-azabicyclo[4.1.0]heptan-7-yl)methanamine], the IC50 ([1]; Homo sapiens, KYSE-520, 2 h) was 1000 to 5000 nM and the IC50 [2] was less than 500 nM.

Compound `Cn1cc2c(Cl)c(-c3n[nH]c4nc(N5CCC6C(C5)C6(CN)c5ccc(F)cn5)cnc34)ccc2n1` (stereo not drawn) [Example 50, (3-(3-(4-chloro-2-methyl-2H-indazol-5-yl)-1H-pyrazolo[3,4-b]pyrazin-6-yl)-7-(5-fluoropyridin-2-yl)-3-azabicyclo[4.1.0]heptan-7-yl)methanamine] has an IC50 ([1]; Homo sapiens, KYSE-520, 2 h) of less than 1000 nM and an IC50 [2] of less than 500 nM.

With `NC[C@]1(c2ccccc2F)[C@@H]2CCN(c3cnc4c(-c5cc(F)c6ncccc6c5)n[nH]c4n3)C[C@@H]21` [Example 174, ((1S,6R,7R)-7-(2-fluorophenyl)-3-(3-(8-fluoroquinolin-6-yl)-1H-pyrazolo[3,4-b]pyrazin-6-yl)-3-azabicyclo[4.1.0]heptan-7-yl)methanamine] the IC50 ([1]; Homo sapiens, KYSE-520, 2 h) was less than 1000 nM and the IC50 [2] was less than 500 nM.

Work on `Cc1cc(C2(CN)C3CCN(c4cnc5c(-c6ccc(C#N)c7ncccc67)n[nH]c5n4)CC32)no1` (stereo not drawn) [Example 32, 5-(6-(7-(aminomethyl)-7-(5-methylisoxazol-3-yl)-3-azabicyclo[4.1.0]heptan-3-yl)-1H-pyrazolo[3,4-b]pyrazin-3-yl)quinoline-8-carbonitrile] yielded an IC50 ([1]; Homo sapiens, KYSE-520, 2 h) of less than 1000 nM and an IC50 [2] of less than 500 nM.

`Cc1c(-c2n[nH]c3nc(N4CC[C@@H]5[C@H](C4)[C@@]5(CN)c4cccc(F)c4F)cnc23)ccc2nn(C)cc12` [Example 177, ((1S,6R,7R)-7-(2,3-difluorophenyl)-3-(3-(2,4-dimethyl-2H-indazol-5-yl)-1H-pyrazolo[3,4-b]pyrazin-6-yl)-3-azabicyclo[4.1.0]heptan-7-yl)methanamine] gave an IC50 ([1]; Homo sapiens, KYSE-520, 2 h) of less than 1000 nM and an IC50 [2] of less than 500 nM.

For `Cn1c(=O)oc2cc(-c3n[nH]c4nc(N5CC[C@@H]6[C@H](C5)[C@@]6(CN)c5ccccc5F)cnc34)ccc21` [Example 353, 6-(6-((1S,6R,7R)-7-(aminomethyl)-7-(2-fluorophenyl)-3-azabicyclo[4.1.0]heptan-3-yl)-1H-pyrazolo[3,4-b]pyrazin-3-yl)-3-methylbenzo[d]oxazol-2(3H)-one], the IC50 ([1]; Homo sapiens, KYSE-520, 2 h) was less than 1000 nM and the IC50 [2] was less than 500 nM.

With `Cn1c(=O)[nH]c2ccc(-c3n[nH]c4nc(N5CC[C@@H]6[C@H](C5)[C@@]6(CN)c5ccccc5F)cnc34)cc21` [Example 320, 6-(6-((1S,6R,7R)-7-(aminomethyl)-7-(2-fluorophenyl)-3-azabicyclo[4.1.0]heptan-3-yl)-1H-pyrazolo[3,4-b]pyrazin-3-yl)-1-methyl-1,3-dihydro-2H-benzo[d]imidazol-2-one] the IC50 ([1]; Homo sapiens, KYSE-520, 2 h) was less than 1000 nM and the IC50 [2] was less than 500 nM.

`NCC1(c2ccon2)C2CCN(c3cnc4c(-c5cccc(Cl)c5Cl)n[nH]c4n3)CC21` (stereo not drawn) [Example 99, (3-(3-(2,3-dichlorophenyl)-1H-pyrazolo[3,4-b]pyrazin-6-yl)-7-(isoxazol-3-yl)-3-azabicyclo[4.1.0]heptan-7-yl)methanamine] was tested, and the IC50 ([1]; Homo sapiens, KYSE-520, 2 h) was less than 1000 nM and the IC50 [2] was less than 500 nM.

With `Cc1cc(C2(CN)C3CCN(c4cnc5c(-c6ccc(F)c7ncccc67)n[nH]c5n4)CC32)no1` (stereo not drawn) [Example 30, (3-(3-(8-fluoroquinolin-5-yl)-1H-pyrazolo[3,4-b]pyrazin-6-yl)-7-(5-methylisoxazol-3-yl)-3-azabicyclo[4.1.0]heptan-7-yl)methanamine] the IC50 ([1]; Homo sapiens, KYSE-520, 2 h) was less than 1000 nM and the IC50 [2] was less than 500 nM.

For `NC[C@]1(c2ccccc2F)[C@@H]2CCN(c3cnc4c(-c5cnn(-c6ccccc6)c5)n[nH]c4n3)C[C@@H]21` [Example 390, ((1S,6R,7R)-7-(2-fluorophenyl)-3-(3-(1-phenyl-1H-pyrazol-4-yl)-1H-pyrazolo[3,4-b]pyrazin-6-yl)-3-azabicyclo[4.1.0]heptan-7-yl)methanamine], the IC50 ([1]; Homo sapiens, KYSE-520, 2 h) was greater than 5000 nM and the IC50 [2] was less than 500 nM.

In the case of `NC[C@]1(c2ccccc2F)[C@@H]2CCN(c3cnc4c(-c5ccc6ncsc6c5)n[nH]c4n3)C[C@@H]21` [Example 118, ((1S,6R,7R)-3-(3-(benzo[d]thiazol-6-yl)-1H-pyrazolo[3,4-b]pyrazin-6-yl)-7-(2-fluorophenyl)-3-azabicyclo[4.1.0]heptan-7-yl)methanamine], the IC50 ([1]; Homo sapiens, KYSE-520, 2 h) is reported as less than 1000 nM and the IC50 [2] is reported as less than 500 nM.

`NC[C@]1(c2ccccc2F)[C@@H]2CCN(c3cnc4c(-c5ccc6c(c5Cl)CC(=O)N6)n[nH]c4n3)C[C@@H]21` [Example 216, 5-(6-((1S,6R,7R)-7-(aminomethyl)-7-(2-fluorophenyl)-3-azabicyclo[4.1.0]heptan-3-yl)-1H-pyrazolo[3,4-b]pyrazin-3-yl)-4-chloroindolin-2-one] showed an IC50 ([1]; Homo sapiens, KYSE-520, 2 h) of less than 1000 nM and an IC50 [2] of less than 500 nM.

For `CS(=O)(=O)c1ccc(-c2n[nH]c3nc(N4CC[C@@H]5[C@H](C4)[C@@]5(CN)c4ccccc4F)cnc23)c2cccnc12` [Example 521, ((1S,6R,7R)-7-(2-fluorophenyl)-3-(3-(8-(methylsulfonyl)quinolin-5-yl)-1H-pyrazolo[3,4-b]pyrazin-6-yl)-3-azabicyclo[4.1.0]heptan-7-yl)methanamine], the IC50 ([1]; Homo sapiens, KYSE-520, 2 h) was less than 1000 nM and the IC50 [2] was less than 500 nM.

With `Cc1csc([C@@]2(CN)[C@@H]3CN(c4cnc5c(-c6ccnc7c(F)cccc67)n[nH]c5n4)C[C@@H]32)n1` [Example 459] the IC50 [1] was less than 1000 nM and the IC50 [2] was less than 500 nM.
